{
  "source": "patent US12129237B2",
  "about": "“Substituted diaminocarboxamide and diaminocarbonitrile pyrimidines, compositions thereof, and methods of treatment therewith” (SIGNAL PHARMACEUTICALS, LLC, priority 2011, dated 2024)",
  "data": [
    {"target": "T1, JNK1 (Homo sapiens, UniProt P45983)", "T1 construct": "purchased Carna Biosciences", "T1 sequence (P45983 whole entry)": "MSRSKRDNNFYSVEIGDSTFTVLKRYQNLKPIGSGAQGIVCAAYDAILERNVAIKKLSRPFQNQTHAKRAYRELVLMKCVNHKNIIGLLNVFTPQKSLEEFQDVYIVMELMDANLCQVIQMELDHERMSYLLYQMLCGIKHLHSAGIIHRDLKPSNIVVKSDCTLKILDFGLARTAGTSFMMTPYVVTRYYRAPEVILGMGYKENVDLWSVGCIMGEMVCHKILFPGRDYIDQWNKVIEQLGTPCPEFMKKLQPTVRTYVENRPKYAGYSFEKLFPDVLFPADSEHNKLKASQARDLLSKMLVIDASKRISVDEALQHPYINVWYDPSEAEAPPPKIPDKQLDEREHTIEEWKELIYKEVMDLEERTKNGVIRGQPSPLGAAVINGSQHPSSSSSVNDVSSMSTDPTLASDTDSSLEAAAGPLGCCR", "assay": "JNK1 biochemical assays (one or more of: time resolved fluorescence, Z'-LYTE Cascade, radioactive)", "settings": "tested in one or more of the JNK1 biochemical assays; read-out: Act. Level (JNK1 biochemical assay IC50 activity level)", "units": {"IC50": "nM"}, "values": [
      {"smiles": "CC(C)CC(=O)N1CCC(Nc2ncc(C(N)=O)c(NC3CCOCC3)n2)CC1", "note": "[Example A-110, 2-(1-(3-methylbutanoyl)piperidin-4-ylamino)-4-(tetrahydro-2H-pyran-4-ylamino)pyrimidine-5-carboxamide]", "IC50": "200 to 800"},
      {"smiles": "CC(C)(O)[C@H]1CC[C@@H](Nc2nc(NC3CCOCC3)ncc2C(N)=O)CC1", "note": "[Example A-111, 4-((1s,4s)-4-(2-hydroxypropan-2-yl)cyclohexylamino)-2-(tetrahydro-2H-pyran-4-ylamino)pyrimidine-5-carboxamide]", "IC50": "< 200"},
      {"smiles": "NC(=O)c1cnc(NC2CCOCC2)nc1N[C@H]1CC[C@@H](C(=O)N2CCCC2)CC1", "note": "[Example A-112, 4-((1s,4s)-4-(pyrrolidine-1-carbonyl)cyclohexylamino)-2-(tetrahydro-2H-pyran-4-ylamino)pyrimidine-5-carboxamide]", "IC50": "800 to 1000"},
      {"smiles": "CCO[C@H]1CC[C@@H](Nc2nc(NC3CCN(C(=O)CC)CC3)ncc2C(N)=O)CC1", "note": "[Example A-113, 4-((1s,4s)-4-ethoxycyclohexylamino)-2-(1-propionylpiperidin-4-ylamino)pyrimidine-5-carboxamide]", "IC50": "< 200"},
      {"smiles": "CCC(=O)N1CCC(Nc2ncc(C(N)=O)c(NC3CCCC3)n2)CC1", "note": "[Example A-114, 4-(cyclopentylamino)-2-(1-propionylpiperidin-4-ylamino)pyrimidine-5-carboxamide]", "IC50": "< 200"},
      {"smiles": "CCO[C@H]1CC[C@@H](Nc2nc(NC3CCOCC3)ncc2C(N)=O)CC1", "note": "[Example A-115, 4-((1s,4s)-4-ethoxycyclohexylamino)-2-(tetrahydro-2H-pyran-4-ylamino)pyrimidine-5-carboxamide]", "IC50": "< 200"},
      {"smiles": "CN(C)C(=O)[C@H]1CC[C@@H](Nc2nc(NC3CCOCC3)ncc2C(N)=O)CC1", "note": "[Example A-116, 4-((1s,4s)-4-(dimethylcarbamoyl)cyclohexylamino)-2-(tetrahydro-2H-pyran-4-ylamino)pyrimidine-5-carboxamide]", "IC50": "200 to 800"},
      {"smiles": "CCO[C@H]1CC[C@H](Nc2ncc(C(N)=O)c(N[C@H]3CCC[C@@H]3O)n2)CC1", "note": "[Example A-117, 2-((1r,4S)-4-ethoxycyclohexylamino)-4-((1S,2S)-2-hydroxycyclopentylamino)pyrimidine-5-carboxamide]", "IC50": "< 200"},
      {"smiles": "CO[C@H]1CC[C@H](Nc2ncc(C(N)=O)c(N[C@H]3CC[C@@H](C(=O)N(C)C)CC3)n2)CC1", "note": "[Example A-118, 4-((1s,4s)-4-(dimethylcarbamoyl)cyclohexylamino)-2-((1r,4r)-4-methoxycyclohexylamino)pyrimidine-5-carboxamide]", "IC50": "< 200"},
      {"smiles": "CO[C@H]1CC[C@H](Nc2ncc(C(N)=O)c(N[C@H]3CC[C@@H](CO)CC3)n2)CC1", "note": "[Example A-119, 4-((1s,4s)-4-(hydroxymethyl)cyclohexylamino)-2-((1r,4r)-4-methoxycyclohexylamino)pyrimidine-5-carboxamide]", "IC50": "< 200"},
      {"smiles": "CO[C@H]1CC[C@H](Nc2ncc(C(N)=O)c(N[C@H]3CC[C@@H](N)CC3)n2)CC1", "note": "[Example A-120, 4-((1s,4s)-4-aminocyclohexylamino)-2-((1r,4r)-4-methoxycyclohexylamino)pyrimidine-5-carboxamide]", "IC50": "< 200"},
      {"smiles": "CO[C@H]1CC[C@H](Nc2ncc(C(N)=O)c(NC3CCC4(CC3)OCCO4)n2)CC1", "note": "[Example A-121, 4-(1,4-dioxaspiro[4.5]decan-8-ylamino)-2-((1r,4r)-4-methoxycyclohexylamino)pyrimidine-5-carboxamide]", "IC50": "< 200"},
      {"smiles": "C[C@H](Nc1ncc(C(N)=O)c(N[C@H]2CC[C@@H](CO)CC2)n1)C1CCCCC1", "note": "[Example A-122, 2-((S)-1-cyclohexylethylamino)-4-((1s,4R)-4-(hydroxymethyl)cyclohexylamino)pyrimidine-5-carboxamide]", "IC50": "< 200"},
      {"smiles": "COC(=O)N1CCC(Nc2ncc(C(N)=O)c(NC3CCCCC3)n2)CC1", "note": "[Example A-123, methyl 4-(5-carbamoyl-4-(cyclohexylamino)pyrimidin-2-ylamino)piperidine-1-carboxylate]", "IC50": "< 200"},
      {"smiles": "CCC(=O)N[C@H]1CC[C@@H](Nc2nc(N[C@@H](C)C3CCCCC3)ncc2C(N)=O)CC1", "note": "[Example A-124, 2-((S)-1-cyclohexylethylamino)-4-((1s,4R)-4-propionamidocyclohexylamino)pyrimidine-5-carboxamide]", "IC50": "< 200"},
      {"smiles": "C[C@H](Nc1ncc(C(N)=O)c(N[C@H]2CC[C@@H](O)CC2)n1)C1CCCCC1", "note": "[Example A-125, 2-((S)-1-cyclohexylethylamino)-4-((1s,4R)-4-hydroxycyclohexylamino)pyrimidine-5-carboxamide]", "IC50": "< 200"},
      {"smiles": "C[C@H](Nc1ncc(C(N)=O)c(N[C@H]2CC[C@@H](N)CC2)n1)C1CCCCC1", "note": "[Example A-126, 4-((1s,4R)-4-aminocyclohexylamino)-2-((S)-1-cyclohexylethylamino)pyrimidine-5-carboxamide]", "IC50": "< 200"},
      {"smiles": "CC(=O)N1CCC(Nc2nc(N[C@@H](C)C3CCCCC3)ncc2C(N)=O)CC1", "note": "[Example A-127, (S)-4-(1-acetylpiperidin-4-ylamino)-2-(1-cyclohexylethylamino)pyrimidine-5-carboxamide]", "IC50": "< 200"},
      {"smiles": "NC(=O)c1cnc(NC2CCCC2)nc1N[C@H]1CC[C@@H](O)CC1", "note": "[Example A-128, 2-(cyclopentylamino)-4-((1s,4s)-4-hydroxycyclohexylamino)pyrimidine-5-carboxamide]", "IC50": "< 200"},
      {"smiles": "CCC(=O)N[C@H]1CC[C@@H](Nc2nc(NC3CCCC3)ncc2C(N)=O)CC1", "note": "[Example A-129, 2-(cyclopentylamino)-4-((1s,4s)-4-propionamidocyclohexylamino)pyrimidine-5-carboxamide]", "IC50": "200 to 800"},
      {"smiles": "CNC(=O)[C@H]1CC[C@@H](Nc2nc(NC3CCCC3)ncc2C(N)=O)CC1", "note": "[Example A-130, 2-(cyclopentylamino)-4-((1s,4s)-4-(methylcarbamoyl)cyclohexylamino)pyrimidine-5-carboxamide]", "IC50": "1000 to 10000"},
      {"smiles": "NC[C@H]1CC[C@@H](Nc2nc(NC3CCCC3)ncc2C(N)=O)CC1", "note": "[Example A-131, 4-((1s,4s)-4-(aminomethyl)cyclohexylamino)-2-(cyclopentylamino)pyrimidine-5-carboxamide]", "IC50": "< 200"},
      {"smiles": "NC(=O)c1cnc(NC2CCC2)nc1N[C@H]1CC[C@@H](C(=O)NC2CC2)CC1", "note": "[Example A-132, 2-(cyclobutylamino)-4-((1s,4s)-4-(cyclopropylcarbamoyl)cyclohexylamino)pyrimidine-5-carboxamide]", "IC50": "1000 to 10000"},
      {"smiles": "NC(=O)c1cnc(NC2CCC2)nc1N[C@H]1CC[C@@H](C(=O)N2CCCCC2)CC1", "note": "[Example A-133, 2-(cyclobutylamino)-4-((1s,4s)-4-(piperidine-1-carbonyl)cyclohexylamino)pyrimidine-5-carboxamide]", "IC50": "800 to 1000"},
      {"smiles": "CN(C)C(=O)[C@H]1CC[C@@H](Nc2nc(NC3CCC3)ncc2C(N)=O)CC1", "note": "[Example A-134, 2-(cyclobutylamino)-4-((1s,4s)-4-(dimethylcarbamoyl)cyclohexylamino)pyrimidine-5-carboxamide]", "IC50": "1000 to 10000"},
      {"smiles": "CCO[C@H]1CC[C@@H](Nc2nc(NC3CCC3)ncc2C(N)=O)CC1", "note": "[Example A-135, 2-(cyclobutylamino)-4-((1s,4s)-4-ethoxycyclohexylamino)pyrimidine-5-carboxamide]", "IC50": "200 to 800"},
      {"smiles": "NC(=O)c1cnc(NC2CC2)nc1N[C@H]1CC[C@@H](CO)CC1", "note": "[Example A-136, 2-(cyclopropylamino)-4-((1s,4s)-4-(hydroxymethyl)cyclohexylamino)pyrimidine-5-carboxamide]", "IC50": "200 to 800"},
      {"smiles": "CCNC(=O)[C@H]1CC[C@@H](Nc2nc(NC3CC3)ncc2C(N)=O)CC1", "note": "[Example A-137, 2-(cyclopropylamino)-4-((1s,4s)-4-(ethylcarbamoyl)cyclohexylamino)pyrimidine-5-carboxamide]", "IC50": "1000 to 10000"},
      {"smiles": "CC(C)CC(=O)N[C@H]1CC[C@@H](Nc2nc(NC3CC3)ncc2C(N)=O)CC1", "note": "[Example A-138, 2-(cyclopropylamino)-4-((1s,4s)-4-(3-methylbutanamido)cyclohexylamino)pyrimidine-5-carboxamide]", "IC50": "800 to 1000"},
      {"smiles": "CC(C)Nc1ncc(C(N)=O)c(N[C@H]2CC[C@@H](CO)CC2)n1", "note": "[Example A-139, 4-((1s,4s)-4-(hydroxymethyl)cyclohexylamino)-2-(isopropylamino)pyrimidine-5-carboxamide]", "IC50": "200 to 800"},
      {"smiles": "CC(C)Nc1ncc(C(N)=O)c(N[C@H]2CC[C@@H](C(C)(C)O)CC2)n1", "note": "[Example A-140, 4-((1s,4s)-4-(2-hydroxypropan-2-yl)cyclohexylamino)-2-(isopropylamino)pyrimidine-5-carboxamide]", "IC50": "200 to 800"},
      {"smiles": "CCNC(=O)[C@H]1CC[C@@H](Nc2nc(NC(C)C)ncc2C(N)=O)CC1", "note": "[Example A-141, 4-((1s,4s)-4-(ethylcarbamoyl)cyclohexylamino)-2-(isopropylamino)pyrimidine-5-carboxamide]", "IC50": "1000 to 10000"},
      {"smiles": "CC(C)Nc1ncc(C(N)=O)c(N[C@H]2CC[C@@H](NC(=O)C(C)C)CC2)n1", "note": "[Example A-142, 4-((1s,4s)-4-isobutyramidocyclohexylamino)-2-(isopropylamino)pyrimidine-5-carboxamide]", "IC50": "200 to 800"},
      {"smiles": "CC(C)Nc1ncc(C(N)=O)c(N[C@H]2CC[C@@H](C(=O)N3CCCC3)CC2)n1", "note": "[Example A-143, 2-(isopropylamino)-4-((1s,4s)-4-(pyrrolidine-1-carbonyl)cyclohexylamino)pyrimidine-5-carboxamide]", "IC50": "800 to 1000"},
      {"smiles": "NC(=O)c1cnc(N[C@H]2CC[C@H](O)CC2)nc1NC1CCCCC1", "note": "[Example A-144, 4-(cyclohexylamino)-2-((1r,4r)-4-hydroxycyclohexylamino)pyrimidine-5-carboxamide]", "IC50": "< 200"},
      {"smiles": "NC(=O)c1cnc(NC2CCCCC2)nc1N[C@H]1CC[C@@H](C(N)=O)CC1", "note": "[Example A-146, 4-((1s,4s)-4-carbamoylcyclohexylamino)-2-(cyclohexylamino)pyrimidine-5-carboxamide]", "IC50": "< 200"},
      {"smiles": "NC(=O)c1cnc(NC2CCCCC2)nc1N[C@H]1CC[C@@H](O)CC1", "note": "[Example A-147, 2-(cyclohexylamino)-4-((1s,4s)-4-hydroxycyclohexylamino)pyrimidine-5-carboxamide]", "IC50": "< 200"},
      {"smiles": "NC(=O)c1cnc(N[C@H]2CC[C@H](O)CC2)nc1NC1CCCC1", "note": "[Example A-148, 4-(cyclopentylamino)-2-((1r,4r)-4-hydroxycyclohexylamino)pyrimidine-5-carboxamide]", "IC50": "< 200"}
    ]}
  ]
}
